Laboratory results published in publication PMC12457078, “Inhibition of soluble epoxide hydrolase in endotoxin induced pig lung injury” (Frontiers in Pharmacology, 2025).
Where “and” joins values, the source holds several entries; their conditions need not be identical. Equal values may be shown once.

System: sEH
Test: oxylipin analysis, epoxide/diol ratios (target engagement)
Format: in vivo, pig
Design: 14,15-DiHETE: unit not given beside the values; 12,13-DiHOME / 9,10-DiHODE / 11,12-DiHETrE / 14,15-DiHETrE / 10,11-DiHDPE / 19,20-DiHDPE / 13-HODE / 5-HETE / 11-HETE / 12-HETE / 5-HEPE / 9(10)-EpOME / 12(13)-EpOME / EKODE / 11(12)-EpETE: unit not given here
Protocol: All animals were monitored with pulse oximetry, heart rate, ECG, systemic arterial blood pressure (ABP), pulmonary arterial pressure (PAP), central venous pressure (CVP) temperature, tidal volumes, respiratory rate and end tidal carbon dioxide. At baseline, and at 3 h, 6 h and at the end of the experiment, pulmonary capillary wedge pressure (PCWP) was measured together with arterial and venous blood gas analyses, as well as cardiac output calculations. Routine chemistry, including creatinine, bilirubin, glucose, electrolytes were collected at baseline and at the end of the experiment (Vetscan VS2®, Abaxis, Griesheim, Germany). Blood samples for measurement of AEPU plasma concentrations, as well as oxylipins (i.e., EpETrEs and their DiHETrE corresponding diols as well as related compounds with other polyunsaturated fatty acid precursors), were collected at baseline, 6 h and at the end of the experiment.
This meant nine subjects in each group to achieve 90% power of detecting a difference of this size given α = 0.05. Anticipating that not all experiments would reach completion, we used a sample size of 22. The results were analyzed using SPSS Statistics, version 24 (IBM Corp., Armonk, N.Y., United States). Normality was examined with the Shapiro-Wilk test, together with examination of histograms of data. Continuous variables were compared using Student’s t-test or Mann Whitney U test, as appropriate. Categorical variables were compared using Fischer’s exact test. Statistical significance was set at α < 0.05. Oxylipins with at least 80% of observations above limit of detection at both timepoints were included in pairwise comparisons of ratios and fold-change evaluations where observations below limit of detection (LOD) were substituted with 0.5 x LOD.

[1] = animal 22, time 6, sample Schwein38

SMILES: CCOCCOCCOCCCCCNC(=O)NC12CC3CC(CC(C3)C1)C2 [sEH-i]
- 8(9)-EpETrE [1]: <LOD
- 8,9-DiHETE [1]: <LOD
- 8,9-DiHETrE [1]: 0.0757
- 8-HETE [1]: 0.0546
- 9(10)-EpODE [1]: 0.22
- 9(10)-EpOME [1]: 0.65
- 9,10,13-TriHOME [1]: 4.88
- 9,10-DiHODE [1]: 0.22
- 9,10-DiHOME [1]: 1.64
- 9,12,13-TriHOME [1]: <LOD
- 9-HETE [1]: <LOD
- 9-HODE [1]: 3.67
- 9-HOTrE [1]: 0.7165
- 9-oxo-ODE [1]: <LOD
- 10(11)-EpDPE [1]: <LOD
- 10,11-DiHDPE [1]: 0.03
- 11(12)-EpETE [1]: 0.07931
- 11(12)-EpETrE [1]: 0.0369
- 11,12-DiHETE [1]: 0.0372
- 11,12-DiHETrE [1]: 0.80
- 11-HETE [1]: 0.10
- 12(13)-EpODE [1]: 0.32
- 12(13)-EpOME [1]: 1.76
- 12,13-DiHODE [1]: 0.31
- 12,13-DiHOME [1]: 3.15
- 12-HEPE [1]: 0.0345
- 12-HETE [1]: 0.2294
- 12-oxo-ETE [1]: 2.84
- 13(14)-EpDPE [1]: <LOD
- 13,14-DiHDPE [1]: 0.13
- 13-HODE [1]: 19.79
- 13-HOTrE [1]: 1.01
- 13-oxo-ODE [1]: <LOD
- 14(15)-EpETE [1]: <LOD
- 14(15)-EpETrE [1]: 0.09
- 14,15-DiHETrE [1]: 1.47
- 15(16)-EpODE [1]: 4.31
- 15,16-DiHODE [1]: 14.18
- 15-HEPE [1]: <LOD
- 15-HETE [1]: 0.27
- 15-HETrE [1]: 0.12
- 15-oxo-ETE [1]: 0.03
- 16(17)-EpDPE [1]: <LOD
- 16,17-DiHDPE [1]: 0.28
- 17(18)-EpETE [1]: <LOD
- 17,18-DiHETE [1]: 1.29
- 17-HDoHE [1]: <LOD
- 19(20)-EpDPE [1]: <LOD
- 19,20-DiHDPE [1]: 1.67
- 20-HETE [1]: 0.10
- EKODE [1]: 0.30
- LTB4 [1]: <LOD
- PGD2 [1]: <LOD
- PGE2 [1]: <LOD
- PGF2a [1]: 0.18
- Resolvin D1 [1]: <LOD
- Resolvin D2 [1]: <LOD
- TXB2 [1]: 0.45
- 14,15-DiHETE (animal 22, time 6, sample Schwein38, high blanks): 0.2142
- 5(6)-EpETrE (time 0, individual pigs): <LOD
- 5,6-DiHETrE (time 0, individual pigs): <LOD
- 5-HEPE (time 0, individual pigs): 0.12 and 0.10 and 0.0352 and 0.0647 and 0.04
- 5-HETE (time 0, individual pigs): 0.3505 and 0.4442 and 0.2569 and 0.292 and 0.2018
- 5-oxo-ETE (time 0, individual pigs): <LOD and 0.13 and 0.12
- 7(8)-EpDPE (time 0, individual pigs): <LOD
- 7,8-DiHDPE (time 0, individual pigs): <LOD
- 8(9)-EpETE (time 0, individual pigs): <LOD
- 8(9)-EpETrE (time 0, individual pigs): <LOD
- 8,9-DiHETE (time 0, individual pigs): <LOD
- 8,9-DiHETrE (time 0, individual pigs): 0.05 and 0.0422 and <LOD and 0.06
- 8-HETE (time 0, individual pigs): 0.06 and 0.08 and 0.053 and 0.0429
- 9(10)-EpODE (time 0, individual pigs): 0.38 and 0.25 and <LOD
- 9(10)-EpOME (time 0, individual pigs): 0.98 and 0.51 and 0.65 and 0.99 and 0.62
- 9,10-DiHODE (time 0, individual pigs): 0.22 and 0.21 and 0.10 and 0.16 and 0.12
- 9,10-DiHOME (time 0, individual pigs): 1.61 and 1.57 and 0.78 and 1.46 and 0.91
- 9-HETE (time 0, individual pigs): <LOD
- 9-HODE (time 0, individual pigs): 8.25 and 8.10 and 3.23 and 6.40 and 4.24
- 9-HOTrE (time 0, individual pigs): 1.27 and 1.28 and 0.79 and 0.81 and 0.6856
- 9-oxo-ODE (time 0, individual pigs): <LOD
- 10(11)-EpDPE (time 0, individual pigs): <LOD
- 10,11-DiHDPE (time 0, individual pigs): <LOD
- 11(12)-EpETE (time 0, individual pigs): 0.1253 and 0.08781 and 0.1311 and 0.1265 and 0.1028
- 11(12)-EpETrE (time 0, individual pigs): <LOD and 0.02 and 0.0347 and 0.03
- 11,12-DiHETE (time 0, individual pigs): <LOD and 0.0219
- 11,12-DiHETrE (time 0, individual pigs): 0.32 and 0.22 and 0.18 and 0.46 and 0.23
- 11-HETE (time 0, individual pigs): 0.13 and 0.12 and 0.05 and 0.0453
- 12(13)-EpODE (time 0, individual pigs): 0.71 and 0.48 and <LOD and 0.61 and 0.44
- 12(13)-EpOME (time 0, individual pigs): 3.24 and 1.63 and 2.31 and 2.28 and 1.75
- 12,13-DiHODE (time 0, individual pigs): 0.45 and 0.48 and 0.25 and 0.29
- 12,13-DiHOME (time 0, individual pigs): 6.90 and 6.98 and 3.85 and 4.66 and 3.09
- 12-HEPE (time 0, individual pigs): 0.04 and <LOD and 0.0173
- 12-HETE (time 0, individual pigs): 0.1828 and 0.38 and 0.09618 and 0.1256 and 0.03983
- 12-oxo-ETE (time 0, individual pigs): <LOD
- 13(14)-EpDPE (time 0, individual pigs): <LOD
- 13,14-DiHDPE (time 0, individual pigs): 0.05 and 0.018 and <LOD and 0.06 and 0.0275
- 13-HODE (time 0, individual pigs): 29.61 and 29.96 and 13.26 and 18.81 and 12.94
